# What was measured:
# [1] = after 600 mg given every 6 hours; cited from earlier work
# [2] = cited from earlier work
# mice [3] = experiment: Mutagenicity of ribavirin in mice; settings: from mice
# mice [4] = settings: cited from earlier work
# [5] = test system: green monkey kidney cells; experiment: Cytotoxic effect of ribavirin in cell culture; type: cell-based
# Description: (§1) In vitro: Studies have been conducted utilized a bovine kidney cell monolayer infected with a strain of WNV isolated from mosquitoes and birds in Connecticut. Cytotoxicity was assayed by measuring the decrease in release of lactate dehydrogenase from infected cells, as compared with uninfected controls.
# West Nile virus (WNV) = experiment: Suppression of West Nile virus in Vero cell culture, colorimetric assay of cellular lactic dehydrogenase (O.D. 490); settings: for Mean O.D. 490 value: Vero cells
# Description: The vertical axis represents a colorimetric assay of cellular lactic dehydrogenase which is directly proportional to cell viability and proliferation.
# as §1
smiles,measurement,setting,value
"NC(=O)c1ncn([C@@H]2O[C@H](CO)[C@@H](O)[C@H]2O)n1 [Ribavirin, 1-β-D-ribofuranosyl-1H-1,2,4-triazole-3-carboxamide, reference compound]",concentration in human serum,[1],1000 ng/mL
same,dose at which inhibition of erythrocyte release from bone marrow occurs,[2]; high doses,30 mg/kg
same,reduction from baseline hematocrit,"[2]; human, in vivo",≤ 20%
same,reduction in baseline hemoglobin,"[2]; human, in vivo",10-12%
same,toxicity (in words),"[2]; human, in vivo",hemolysis
same,Bioavailability,[2]; patients with renal dysfunction,increased
same,teratogenicity,"[2]; should not be given during, or within 6 months of pregnancy",teratogenic
same,estimated human equivalent of mutagenic dose,mice [3],1.67 to 16.7 mg/kg
same,dose known to be mutagenic,mice [4],20 to 200 mg/kg
same,concentration at which a cytotoxic effect occurred,[5],600 to 1000 µM
same,Mean O.D. 490 value,West Nile virus (WNV); Ribavirin 0.2 uM applied 2 hours prior to infection of cells with WNV,0.72c
same,Mean O.D. 490 value,West Nile virus (WNV); Ribavirin 0.3 uM applied 2 hours prior to infection of cells with WNV,1.11a
same,Mean O.D. 490 value,West Nile virus (WNV); Ribavirin 0.4 uM applied 2 hours prior to infection of cells with WNV,1.24b
same,Mean O.D. 490 value,West Nile virus (WNV); Ribavirin 0.5 uM applied 2 hours prior to infection of cells with WNV,1.24b
same,Mean O.D. 490 value,West Nile virus (WNV); Ribavirin 0.6 uM applied 2 hours prior to infection of cells with WNV,1.06a
same,concentration protective or prophylactic against infection,West Nile virus (WNV); WNV infection of bovine kidney cells in vitro,400 µM
same,concentration that suppressed viral replication,West Nile virus (WNV); applied after infection,500 µM
same,activity in vitro against WNV infection,West Nile virus (WNV); bovine kidney cells,active
same,protective concentration expressed as mass concentration,West Nile virus (WNV); equivalent of 400 uM,approximately 100 ug/ml

# Source: patent publication US6946125B2, “Methods of treating West Nile virus infection” (The New York Hospital Medical Center of Queens, priority 2000, dated 2005)
